The values that follow come from ChEMBL document CHEMBL5120918, “Marinoquinolones and Marinobactoic Acid: Antimicrobial and Cytotoxic ortho-Dialkylbenzene-Class Metabolites Produced by a Marine Obligate Gammaproteobacterium of the Genus Marinobacterium” (J Nat Prod, 2022).

Converted amounts (≈) assume the structure as drawn.

In one assay the test system is Kocuria rhizophila. Description: Antimicrobial activity against Kocuria rhizophila ATCC9341 assessed as inhibition of bacterial growth incubated for 48 hrs by liquid microculture method. Type of assay: functional.
Another assay has as its system Staphylococcus aureus. Description: Antimicrobial activity against Staphylococcus aureus FDA209P JC-1 assessed as inhibition of bacterial growth incubated for 48 hrs by liquid microculture method. Type of assay: functional.
The subject of the next assay is Escherichia coli. Briefly: Antimicrobial activity against Escherichia coli NIHJ JC-2 assessed as inhibition of bacterial growth incubated for 48 hrs by liquid microculture method. Format: functional.
Assay [1] has as its system Agrobacterium tumefaciens. Briefly: Antimicrobial activity against Rhizobium radiobacter NBRC14554 assessed as inhibition of bacterial growth incubated for 48 hrs by liquid microculture method. Format: functional.
Assay [2] has as its system Colletotrichum gloeosporioides. Briefly: Antimicrobial activity against Glomerella cingulata NBRC5907 assessed as inhibition of […] growth incubated for 48 hrs by liquid microculture method. Format: functional.
In the next assay the test system is Trichophyton rubrum. Description: Antimicrobial activity against Trichophyton rubrum NBRC5467 assessed as inhibition of […] growth incubated for 48 hrs by liquid microculture method. Type of assay: functional.
Another assay deals with Candida albicans. Description: Antimicrobial activity against Candida albicans NBRC0197 assessed as inhibition of […] growth incubated for 48 hrs by liquid microculture method. Type of assay: functional.
Another assay deals with P388. Description: Cytotoxicity against mouse P388 cells assessed as cell growth inhibition measured after 48 hrs by MTT assay. Type of assay: functional, cell-based. The following applies: P388, 48 h. For orientation: Tetrazolium assays rely on reduction of a dye to a coloured formazan, in cell work by metabolically active cells.

Broadly, the MIC is the smallest concentration in the dilution series that meets the test's criterion for growth inhibition. The term IC50 denotes the concentration that gives 50% inhibition. As for `C/C=C/c1ccccc1C/C=C/C=C\Cc1cc(=O)c2ccccc2[nH]1`, the MIC in the assay with Kocuria rhizophila was 13 µg/mL (≈ 38.1 µM); with Staphylococcus aureus, 25 µg/mL (≈ 73.2 µM); with Escherichia coli, above 100 µg/mL; in assay [1] it was 50 µg/mL (≈ 146 µM); in assay [2], 25 µg/mL (≈ 73.2 µM); with Trichophyton rubrum, 13 µg/mL (≈ 38.1 µM). Also, in the assay with Candida albicans, the MIC is above 100 µg/mL. For the same compound, in the assay with P388, the IC50 is 10 µM.
Consider `C/C=C/c1ccccc1C/C=C/C=C\CC(=O)O`, for which the MIC is 13 µg/mL (≈ 53.6 µM) in the assay on Kocuria rhizophila; 6.3 µg/mL (≈ 26 µM) in the assay with Staphylococcus aureus; above 100 µg/mL in the assay on Escherichia coli; 25 µg/mL (≈ 103 µM) in assay [1]; 6.3 µg/mL (≈ 26 µM) in assay [2]; 13 µg/mL (≈ 53.6 µM) in the assay with Trichophyton rubrum. Besides, in the assay on Candida albicans, the MIC was above 100 µg/mL. In the assay on P388, the 50% inhibitory concentration (IC50) was 1.2 µM.
As to `C/C=C/c1ccccc1/C=C/C=C/C(O)Cc1cc(=O)c2ccccc2[nH]1` (racemic), the MIC in the assay on Kocuria rhizophila is 6.3 µg/mL (≈ 17.6 µM); with Staphylococcus aureus, 13 µg/mL (≈ 36.4 µM); in the assay on Escherichia coli, above 100 µg/mL; in assay [1], 50 µg/mL (≈ 140 µM); in assay [2], 13 µg/mL (≈ 36.4 µM); with Trichophyton rubrum, 6.3 µg/mL (≈ 17.6 µM). Moreover, in the assay with Candida albicans, the MIC was above 100 µg/mL. Further, the half-maximal inhibitory concentration (IC50) in the assay with P388 came out at 7.3 µM.
On to `C[C@@H]1[C@H](O)[C@@H](C)/C=C/C=C/C=C/C=C/C=C/C=C/C=C/[C@H](O[C@@H]2O[C@H](C)[C@@H](O)[C@H](N)[C@@H]2O)C[C@@H]2O[C@](O)(C[C@@H](O)C[C@@H](O)[C@H](O)CC[C@@H](O)C[C@@H](O)CC(=O)O[C@H]1C)C[C@H](O)[C@H]2C(=O)O` [AMPHOTERICIN B], for which the MIC in assay [2] was determined as 1.3 µg/mL (≈ 1.41 µM); in the assay with Trichophyton rubrum, 0.78 µg/mL (≈ 0.844 µM); with Candida albicans, 0.78 µg/mL (≈ 0.844 µM).
Regarding `COc1cccc2c1C(=O)c1c(O)c3c(c(O)c1C2=O)C[C@@](O)(C(=O)CO)C[C@@H]3O[C@H]1C[C@H](N)[C@H](O)[C@H](C)O1` [DOXORUBICIN], the half-maximal inhibitory concentration (IC50) in the assay with P388 was 0.08 µM.
